Test results published in paper PMC3334918, “Mutagenesis and Functional Studies with Succinate Dehydrogenase Inhibitors in the Wheat Pathogen Mycosphaerella graminicola” (PLoS ONE, 2012).

Experiments:
[1] = examination of supplemented AE agar plates for precipitate; assay type: physicochemical; settings: AE agar plates supplemented with 150 µM (5×MSC), developed over time
[2] = molecular target: succinate dehydrogenase (SDH), WT (IPO323) (Zymoseptoria tritici (Mycosphaerella graminicola), UniProt F9X9V6+F9XG45+F9XH52); assay: in vitro succinate: Q0/DCPIP activity test, purified mitochondria; assay type: biochemical; settings: read-out: IC50 in vitro, ±S.E. (triplicate)
Sequence of succinate dehydrogenase (SDH), WT (IPO323) (F9XG45 entry or part of it): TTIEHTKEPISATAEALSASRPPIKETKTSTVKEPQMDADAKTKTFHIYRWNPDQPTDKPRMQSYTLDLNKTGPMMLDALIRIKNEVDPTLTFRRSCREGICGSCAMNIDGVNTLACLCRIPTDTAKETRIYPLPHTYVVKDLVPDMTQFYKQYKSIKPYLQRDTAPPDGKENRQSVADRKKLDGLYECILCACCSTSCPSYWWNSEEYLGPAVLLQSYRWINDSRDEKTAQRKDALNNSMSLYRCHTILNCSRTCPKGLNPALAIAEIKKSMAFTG
Sequence of succinate dehydrogenase (SDH), WT (IPO323) (F9X9V6 entry or part of it): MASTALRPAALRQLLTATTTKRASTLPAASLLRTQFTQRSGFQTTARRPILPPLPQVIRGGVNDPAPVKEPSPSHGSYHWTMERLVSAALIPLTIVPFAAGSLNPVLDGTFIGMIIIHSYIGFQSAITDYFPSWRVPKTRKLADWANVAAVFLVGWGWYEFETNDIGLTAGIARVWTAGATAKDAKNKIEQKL
Sequence of succinate dehydrogenase (SDH), WT (IPO323) (F9XH52 entry or part of it): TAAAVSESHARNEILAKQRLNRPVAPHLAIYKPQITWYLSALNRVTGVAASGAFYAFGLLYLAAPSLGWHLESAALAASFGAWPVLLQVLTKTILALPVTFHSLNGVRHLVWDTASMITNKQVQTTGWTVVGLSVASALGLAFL
Description: (§1) To explore the sensitivity profiles conferred by amino acid substitutions at the cellular and mitochondrial level, we determined sensitivity towards 4 different compounds for 26 of the identified substitution types both in vivo using liquid culture growth (AE media) and in vitro using purified mitochondria and the succinate: Q0/DCPIP activity test (Table 3). […] Resistance factors (RF) were determined as the ratio IC50mutant/IC50WT. […] Qp site mutations are well known to influence SDH enzyme activity and stability upon catalysis, [13], [38], [41].
Strains were grown in 1 liter TSM40 units. Cultures were inoculated at 0.05 OD600 nm and grown on a reciprocal shaker (110 rpm, 22°C) for 5 days. Cells were harvested by vacuum filtration and disrupted in liquid nitrogen using a mortar and pestle. Resultant powder was re-suspended to 10% w/v in mitochondrial extraction buffer (10 mM KHPO4 pH7.2; 10 mM KCl, 10 mM MgCl2, 0.5 M sucrose, 0.2 mM EDTA, 2 mM PMSF). Extract was clarified by centrifugation (5,000 g, 4°C for 10 minutes, 2 times), intact mitochondria were then pelleted at 10,000 g for 20 minutes at 4°C. […] This volume was transferred to conical 1.5 ml tubes and re-centrifuged, 10,000 g for 10 minutes at 4°C. […] Mitochondrial suspensions were brought to a final concentration of 10 mg ml^−1 in extraction buffer and stored at −80°C until used.
Mitochondrial suspensions were incubated at 30°C for 30 minutes in extraction buffer supplemented with 10 mM succinate prior to enzymatic measurements.
A reaction plate was equilibrated for 10 minutes at 30°C before starting the reaction. DCPIP reduction was conducted at 30°C and monitored at 595 nm using a HTS7000 microtiterplate reader (Perkin Elmer). For calculations a molecular extinction coefficient of ε = 17 mM^−1 cm^−1 was used.
Inhibitor concentrations ranged between 1 mM and 0.95 nM with uniform 4× dilution factor steps (11 inhibitor concentrations+DMSO control). 96 wells plates were pre equilibrated at reaction temperature (30°C) for 10 minutes before the reactions were started by the addition of 5 µl preactivated M. graminicola mitochondrial suspension. Calculated absorbance slopes (OD/hour) were used for IC50 calculations using Graphpad Prism 5.0 software non linear curve fitting against log inhibitor concentrations.

[3] = test system: M. graminicola WT (IPO323); assay: microbe, parasite or virus in culture; assay type: cell-based, Mycosphaerella graminicola; settings: Zymoseptoria tritici; WT (IPO323), liquid culture growth, ±S.E. (triplicate); read-out: IC50 in vivo
Description: as §1
(§2) Conidial cells were collected from 4 day old V8 agar plates (cultured at 18°C in the dark) using liquid AE and a cell spreader. Cell density was determined and cells re-suspended to a concentration of 5×10^5 cells ml^−1 in AE media. Sterile 96 wells microtiter plates with lids (Costar) were inoculated with 198 µl of this cell suspension (10^5 cells per well) and 2 µl of inhibitor (100× in DMSO). Final inhibitor concentrations were between 0.95 nM and 1 mM with uniform 4× dilution factor steps (11 inhibitor concentrations+1 DMSO control). Plates were incubated for 6 days at 19°C in the dark before cells were re-suspended and measured for growth (OD600 nm). IC50 values were determined by non linear curve fitting on the basis of measured OD values versus log inhibitor concentrations (GraphPad Prism 5.0 software).

[4] = test system: M. graminicola strain Cbx28 (SDHB_H267Y); assay: in vivo sensitivity, liquid culture growth (AE media); assay type: cell-based, Mycosphaerella graminicola; settings: M. graminicola SDHB_H267Y; compound A: data not shown
Description: as §1, §2

[5] = test system: wild type IPO323 M. graminicola strain; assay type: cell-based, Mycosphaerella graminicola; settings: minimal concentration to fully inhibit growth of WT IPO323, AE agar, 10^7 cells, 2 weeks at 20°C in the dark
Description: (§3) Selection plates were produced after adding 1% of a 100× DMSO solution of the active ingredients to pre-melted AE-agar.

[6] = test system: M. graminicola isolate IPO323; assay: UV mutagenesis and selection of resistant colonies on carboxamide amended AE agar; assay type: cell-based, Mycosphaerella graminicola
Description: as §3
Cells were harvested from 4 days old V8 agar plates and conidial cells were suspended in liquid AE. 10^7 cells were spread onto carboxamide amended AE agar plates and mutagenized using UV Stratalinker 2400 (Stratagene) with 75 mJ cm^−2 or 50 mJ cm^−2. […] Selection plates were incubated in the dark at 20°C for 14 days. Visible colonies were picked from the primary selection plate and re-grown on fresh selection media for 2 additional weeks under the same conditions.

Structure (SMILES) | precipitation in the media [1] | IC50 [2] | IC50 [3] | sensitivity / control of the SDHB_H267Y mutant compared to the WT [4] | Minimal selective concentration (MSC) [5] | Frequency (of resistance development) ([6]; selection at MSC, UV treatment 50 mJ cm^−2) | Frequency (of resistance development) ([6]; selection at MSC, UV treatment 75 mJ cm^−2) | Frequency (of resistance development) ([6]; selection at […] MSC, UV treatment 50 mJ cm^−2) | Frequency (of resistance development) ([6]; selection at […] MSC, UV treatment 75 mJ cm^−2)
O=C(Nc1ccccc1-c1ccc(Cl)cc1)c1cccnc1Cl [Boscalid] | white precipitate | 60 ± 1.8 nM | 455 ± 47 nM | – | – | – | – | – | –
O=C(NCCc1ncc(C(F)(F)F)cc1Cl)c1ccccc1C(F)(F)F [Fluopyram] | – | 44 ± 2.2 nM | 584 ± 100 nM | hypersensitivity | – | – | – | – | –
CC1=C(C(=O)Nc2ccccc2)SCCO1 [Carboxin] | – | 1160 ± 102 nM | 6470 ± 1080 nM | – | – | – | – | – | –
CC(C)C1C2CCC1c1c(NC(=O)c3cn(C)cc3C(F)(F)F)cccc12 (centres unmarked) [compound A] | – | – | – | better control | compound A 100 µM (MSC) | 1.4E-07 | 2.1E-07 | 2.1E-07 | 1.9E-07
